From patent US20190388428A1, “A Pharmaceutical Composition Comprising An Oxazine Derivative And Its Use In The Treatment Or Prevention Of Alzheimer's Disease” (NOVARTIS AG, priority 2017, published 2019)

Key:
[1] = Drug-drug interaction study with strong CYP3A4 inducer rifampicin in healthy volunteers; type: in vivo, human; settings: with rifampicin 600 mg q.d. vs Compound 1 alone
Excerpt: (§1) The DDI study design is outlined in FIG. 10.
(§2) An ANOVA model with fixed effects for treatment and subject was fitted to each log-transformed PK parameter. Results were back transformed to obtain ‘Adjusted geo-mean’, ‘Geo-mean ratio’ and ‘90% Cl’.

[2] = Chemical stability of crystalline Compound 1 at high temperature/humidity (UPLC purity); type: physicochemical; settings: for Purity/%: crystalline material
Excerpt: After storage at high temperature and/or humidity, bulk crystalline material was sampled and dissolved in acetonitrile:water (80:20) and the purity analysed in a Waters Aquity UPLC using the following conditions: […]

[3] = Physical properties of the drug substance (solubility, hygroscopicity, wettability); type: physicochemical
[4] = Off-target binding or activity (background statement)
[5] = Drug-drug interaction study with strong CYP3A4 inhibitor itraconazole in healthy volunteers; type: in vivo, human; settings: with itraconazole 200 mg q.d. vs Compound 1 alone
Excerpt: as §1, §2

With C[C@@]1(c2nc(NC(=O)c3ncc(C(F)(F)F)cc3Cl)ccc2F)CO[C@@](C)(C(F)(F)F)C(N)=N1 [Compound 1, N-(6-((3R,6R)-5-amino-3,6-dimethyl-6-(trifluoromethyl)-3,6-dihydro-2H-1,4-oxazin-3-yl)-5-fluoropyridin-2-yl)-3-chloro-5-(trifluoromethyl)picolinamide] the “decrease of mean AUC” value [1] was 5-6 fold, the “decrease of mean Cmax” value [1] was 2.5 fold and the “Solid State Form” value ([2]; 50° C./75% RH, 3 weeks) was “Crystalline”. The “Solid State Form” value ([2]; 50° C., 4 weeks) was “Crystalline”, the “Solid State Form” value ([2]; 80° C., 3 weeks) was “Crystalline” and the “Solid State Form” value ([2]; RT, 0 (initial)) was “Crystalline”. It also gave a Purity/% ([2]; 50° C./75% RH, 3 weeks) of 96.8%, a Purity/% ([2]; 50° C., 4 weeks) of 97.3% and a Purity/% ([2]; 80° C., 3 weeks) of 97.3%. The Purity/% ([2]; RT, 0 (initial)) was 97.3%, the “hygroscopicity” value [3] was “non-hygroscopic” and the “wettability” value [3] was “poorly wettable”. For the same compound, the “solubility in water” value ([3]; water) was “poorly soluble”, the “off-target binding or activity” value [4] was “no relevant off-target binding or activity” and the “increase of mean AUC” value [5] was 2-3 fold. For the same compound, the “increase of mean Cmax” value [5] was 25%.
